Measured values published in patent US6004955A, “Cyclic carbamates and isoxazolidines as IIb/IIIa antagonists” (DuPont Pharmaceuticals Company, priority 1998, dated 1999).

system: platelet aggregation (using platelet rich plasma (PRP)); test: Platelet Aggregation Assay (without esterase); type: cell-based; settings: human platelet rich plasma
Method: Platelet Aggregation Assay: Venous blood was obtained from the arm of a healthy human donor who was drug-free and aspirin-free for at least two weeks prior to blood collection. Blood was collected into 10 mL citrated Vacutainer tubes. The blood was centrifuged for 15 minutes at 150×g at room temperature, and platelet-rich plasma (PRP) was removed. The remaining blood was centrifuged for 15 minutes at 1500×g at room temperature, and platelet-poor plasma (PPP) was removed. Samples were assayed on a aggregometer (PAP-4 Platelet Aggregation Profiler), using PPP as the blank (100% transmittance). 200 μL of PRP was added to each micro test tube, and transmittance was set to 0%. 20 μL of various agonists (ADP, collagen, arachidonate, epinephrine, thrombin) were added to each tube, and the aggregation profiles were plotted (% transmittance versus time). The results are expressed as % inhibition of agonist-inducedplatelet aggregation. For the IC50 evaluation, the test compounds were added at various concentrations prior to the activation of the platelets.
Table A below sets forth the antiplatelet activity of representative compounds of the present invention. The indicated compounds were tested for their ability to inhibit platelet aggregation (using platelet rich plasma (PRP)). The IC50 value (the concentration of antagonist which inhibits platelet aggregation by 50% relative to a control lacking the antagonist) is shown. In Table 5 the IC50 values are expressed as: +++=IC50 of <10 μM (μM=micromolar).

Question: How did the IC50 turn out when `Cc1cccc(S(=O)(=O)N[C@@H](CNC(=O)CC2CC(c3ccc(C(=N)N)cc3)N(Cc3ccccc3)C(=O)O2)C(=O)O)c1` (stereo partly drawn) [Example 322, Cis-3-[[[4-[4-(aminoiminomethyl)phenyl]tetrahydro-3-benzyl-2-oxo-2H-1,3-oxazin-6-yl]acetyl]amino]-N-[(3-methylphenyl)sulfonyl]-L-alanine monohydrogenchloride] was run?
Answer: Its IC50 is less than 10 µM.

Question: Which IC50 does the source give for `CCCCOC(=O)N[C@@H](CNC(=O)CC1CC(c2ccc(C(=N)N)cc2)N(C)O1)C(=O)O` (stereo partly drawn) [Example 69, Cis-3-[2-[2-methyl-3-[4-(aminoiminomethyl)phenyl]-isoxazolidin-5-yl]acetyl]amino-N-n-butyloxycarbonyl-L-alanine monohydrogenchloride] here?
Answer: The IC50 was less than 10 µM.

Question: With `Cc1cccc(S(=O)(=O)N[C@@H](CNC(=O)CC2CC(c3ccc(C(=N)N)cc3)N(c3ccccc3)O2)C(=O)O)c1` (stereo partly drawn) [Example 71, Cis-3-[2-[2-phenyl-[4-(aminoiminomethyl)phenyl]-isoxazolidin-5-yl]actetyl]amino-N-(3-methylphenylsulfonyl)-L-alanine monohydrogenchloride] as the compound, how does the IC50 read?
Answer: Its IC50 is less than 10 µM.

Question: `Cc1noc(C)c1S(=O)(=O)N[C@@H](CNC(=O)C[C@@H]1C[C@H](c2ccc(C(=N)N)cc2)N(C)O1)C(=O)O` (relative stereo) [Example 38, Cis-3-[2-[2-methyl-3-[4-(aminoiminomethyl)phenyl]-isoxazolidin-5-yl]acetyl]amino-N-(3,5-dimethyloxazol-4-ylsulfonyl)-L-alanine monohydrogenchloride] was tested. Which IC50 did it give?
Answer: The IC50 was less than 10 µM.
